pIC50: −log10 of the molar value. Counter-ions that a name gives are not always drawn.
Tests used:
rhVAP-1 = target: T1, rhVAP-1 (Homo sapiens, UniProt Q16853); assay: Inhibitory activity against rhVAP-1 enzyme (Biological Example 2); assay type: biochemical; details: Table 2; benzylamine substrate, Amplex Red/HRP
T1 construct: purchased PeproTech
T1 sequence (Q16853 27-763 limits assumed): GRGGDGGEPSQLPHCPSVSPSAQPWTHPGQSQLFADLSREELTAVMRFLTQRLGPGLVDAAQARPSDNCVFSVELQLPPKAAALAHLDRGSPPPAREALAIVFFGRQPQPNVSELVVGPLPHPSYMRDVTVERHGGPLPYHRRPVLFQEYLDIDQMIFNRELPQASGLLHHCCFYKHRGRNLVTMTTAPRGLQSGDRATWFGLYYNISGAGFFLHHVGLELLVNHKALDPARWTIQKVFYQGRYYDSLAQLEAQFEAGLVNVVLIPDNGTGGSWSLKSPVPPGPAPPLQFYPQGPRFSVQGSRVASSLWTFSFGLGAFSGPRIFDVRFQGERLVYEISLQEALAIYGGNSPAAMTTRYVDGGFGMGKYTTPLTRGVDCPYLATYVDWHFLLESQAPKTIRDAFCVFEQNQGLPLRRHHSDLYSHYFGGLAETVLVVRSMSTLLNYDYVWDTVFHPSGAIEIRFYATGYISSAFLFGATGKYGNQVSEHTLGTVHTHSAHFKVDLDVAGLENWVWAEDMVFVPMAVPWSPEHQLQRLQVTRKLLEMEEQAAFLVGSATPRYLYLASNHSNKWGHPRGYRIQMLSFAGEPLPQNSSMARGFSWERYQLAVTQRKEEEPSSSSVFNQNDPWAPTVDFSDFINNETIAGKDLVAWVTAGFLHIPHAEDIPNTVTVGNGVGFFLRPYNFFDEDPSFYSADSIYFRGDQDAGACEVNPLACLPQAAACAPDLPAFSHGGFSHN
How it was run: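 Enzyme was preincubated 30 min at 37 °C in PBS with a 10-point 3-fold compound dilution series. Benzylamine with Amplex Red/HRP was then added, and fluorescence (ex 580/em 620 nm) was read every 5 min for 30 min. Inhibition was taken from rates versus max wells, and IC50 from a variable-slope fit.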

MAO-A = target: T2, MAO-A (Homo sapiens, UniProt P21397); assay: Selectivity against MAO-A enzyme (MAO-Glo); assay type: biochemical
T2 construct: purchased Active Motif
T2 sequence (P21397 1-527): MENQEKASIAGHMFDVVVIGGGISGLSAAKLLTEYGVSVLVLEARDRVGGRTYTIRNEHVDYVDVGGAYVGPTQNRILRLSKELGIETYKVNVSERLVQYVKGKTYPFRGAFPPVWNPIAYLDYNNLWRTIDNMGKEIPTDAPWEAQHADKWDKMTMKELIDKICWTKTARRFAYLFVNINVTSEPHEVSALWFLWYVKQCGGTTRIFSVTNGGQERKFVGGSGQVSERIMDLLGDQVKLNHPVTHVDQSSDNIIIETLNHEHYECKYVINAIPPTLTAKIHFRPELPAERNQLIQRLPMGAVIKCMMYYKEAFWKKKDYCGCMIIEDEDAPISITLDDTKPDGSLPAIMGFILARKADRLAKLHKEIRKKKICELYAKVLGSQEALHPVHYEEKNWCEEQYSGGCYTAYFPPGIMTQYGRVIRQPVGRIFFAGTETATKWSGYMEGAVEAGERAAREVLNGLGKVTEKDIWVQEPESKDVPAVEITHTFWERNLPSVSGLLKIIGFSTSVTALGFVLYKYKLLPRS
Method: (1) Instrument, Consumable and Reagent
Microplate reader (Perkin Elmer, EnVision), 384-well plate (Perkin Elmer), centrifuge (Eppendorf), MAO-Glo™ (Promega), MAO-A (Active Motif) and MAO-B (Active Motif).
(2) Preparation of Concentration Gradient Compound Solutions
An appropriate amount of the compound to be tested was taken, dissolved in DMSO to 10 mM and then stored. The solution was then gradiently diluted 4-fold with DMSO, 6 concentration gradients in total.
(3) Preparation of Enzyme Solutions
MAO-A/B mother liquor was diluted with the experimental buffer for MAO-A/B to obtain enzyme solutions of 2× concentrations.
(4) Preparation of Substrate Mixtures of 2× Concentrations
The mother liquor of MAO-A/B substrate mixture was diluted with the experimental buffer for MAO-A/B to obtain substrate mixtures of 2× concentrations.
200 nL compound solutions or solvents of different concentrations and 10 μL MAO-A/B enzyme solutions of 2× concentrations were added into a 384-well plate, centrifuged at 1,000 rpm for 60 s, shaken to be mixed uniformly and then incubated at room temperature for 15 min. 10 μL substrate mixtures of 2× concentrations were then added into each well, and reaction was initiated. The 384-well plate was centrifuged at 1,000 rpm for 60 s, shaken for a uniform mixing and then incubated at room temperature for 60 min. 20 μL of test stop solution was added to stop reaction. Centrifugation was performed at 1,000 rpm for 60 s, and shaking was performed for uniform mixing. After 30 min of standing, the microplate reader was used to perform reading.
The inhibition rate was calculated according to the following formula: Inhibition rate (%)=(Signal_Max-Signal_sample)/(Signal_Max-Signal_min)×100 (6) Fitting of Dose-Response Curve
With the log value of concentration as the X axis and the percent inhibition rate as the Y axis, the log (inhibitor) vs. response-variable slope of analysis software GraphPad Prism 5 was used to fit a dose-response curve, thus obtaining the IC50 value of activity of each compound against the enzyme.

SMILES	pIC50 (rhVAP-1)	pIC50 (MAO-A)
CC(C)(C)N1CCc2nn(C/C(=C/F)CN)cc2C1=O [Compound A7 hydrochloride, (E)-2-(2-(aminomethyl)-3-fluoroallyl)-5-tert-butyl-2,5,6,7-tetrahydro-4H-pyrazolo[4,3-c]pyridin-4-one]	7.34	< 4.00
Cc1c2c(cn1C/C(=C/F)CN)C(=O)N(C1CC1)CC2 [Compound A35 hydrochloride, (E)-2-(2-(aminomethyl)-3-fluoroallyl)-5-cyclopropyl-1-methyl-2,5,6,7-tetrahydro-4H-pyrrolo[3,4-c]pyridin-4-one]	7.62	5.06
CCN1CCc2nn(C/C(=C/F)CN)cc2C1=O [Compound A6 hydrochloride, (E)-2-(2-(aminomethyl)-3-fluoroallyl)-5-ethyl-2,5,6,7-tetrahydro-4H-pyrazolo[4,3-c]pyridin-4-one]	7.64	4.05
NC/C(=C\F)Cn1c(Br)c2c(c1Br)C(=O)N(C1CC1)CC2 [Compound A33 hydrochloride, (E)-2-(2-(aminomethyl)-3-fluoroallyl)-1,3-dibromo-5-cyclopropyl-2,5,6,7-tetrahydro-4H-pyrrolo[3,4-c]pyridin-4-one]	7.64	4.25
CCn1ccc2c(cnn2C/C(=C/F)CN)c1=O [Compound A29 hydrochloride, (E)-1-(2-(aminomethyl)-3-fluoroallyl)-5-ethyl-1,5-dihydro-4H-pyrazolo[4,3-c]pyridin-4-one]	7.22	4.06
Cl.NC/C(=C\F)Cn1cc2c(c1Cl)CCN(C1CC1)C2=O [Compound A42 hydrochloride, (E)-2-(2-(aminomethyl)-3-fluoroallyl)-1-chloro-5-cyclopropyl-2,5,6,7-tetrahydro-4H-pyrrolo[3,4-c]pyridin-4-one]	7.77	4.32
Cl.NC/C(=C\F)Cn1cc2c(c1Br)CCN(C1CC1)C2=O [Compound A32 hydrochloride, (E)-2-(2-(aminomethyl)-3-fluoroallyl)-1-bromo-5-cyclopropyl-2,5,6,7-tetrahydro-4H-pyrrolo[3,4-c]pyridin-4-one]	7.82	4.21
NC/C(=C\F)Cn1ncc2c1CCN(C1CC1)C2=O [Compound A2 hydrochloride, (E)-1-(2-(aminomethyl)-3-fluoroallyl)-5-cyclopropyl-1,5,6,7-tetrahydro-4H-pyrazolo[4,3-c]pyridin-4-one]	–	< 4.00
CCn1ccc2nn(C/C(=C/F)CN)cc2c1=O [Compound A28 hydrochloride, (E)-2-(2-(aminomethyl)-3-fluoroallyl)-5-ethyl-2,5-dihydro-4H-pyrazolo[4,3-c]pyridin-4-one]	7.48	< 4.00

Results, then the compound that gave them:

pIC50 (rhVAP-1)	pIC50 (MAO-A)	SMILES
8.10	< 4.00	NC/C(=C\F)Cn1cc2c(=O)n(C3CC3)ccc2n1 [Compound A41, (E)-2-(2-(aminomethyl)-3-fluoroallyl)-5-cyclopropyl-2,5-dihydro-4H-pyrazolo[4,3-c]pyridin-4-one]
7.36	< 4.00	NC/C(=C\F)Cn1cc2c(c1)C(=O)N(C1CC1)CC2 [Compound A22, (E)-2-(2-(aminomethyl)-3-fluoroallyl)-5-cyclopropyl-2,5,6,7-tetrahydro-4H-pyrrolo[3,4-c]pyridin-4-one]
7.35	< 4.00	CCN1CCc2cn(C/C(=C/F)CN)cc2C1=O [Compound A25, (E)-2-(2-(aminomethyl)-3-fluoroallyl)-5-ethyl-2,5,6,7-tetrahydro-4H-pyrrolo[3,4-c]pyridin-4-one]
7.40	< 4.00	CNC(=O)c1cnn(C/C(=C/F)CN)c1 [Compound B1, (E)-1-(2-(aminomethyl)-3-fluoroallyl)-N-methyl-1H-pyrazole-4-carboxamide]

Reference: patent US12371432B2, “Haloallylamine compounds and application thereof” (TransThera Sciences (Nanjing), Inc., priority 2019, dated 2025)
